Laboratory results: the supplement of paper PMC10307832

Key:
Assay in all cases: relative viability (nuclei count vs DMSO), 5 days (fraction); higher = more cells survive
[1] = compound: CN1CCN(c2ccc3nc(-c4c(N)c5c(F)cccc5[nH]c4=O)[nH]c3c2)CC1 [Dovitinib] + CS(=O)(=O)CCNCc1ccc(-c2ccc3ncnc(Nc4ccc(OCc5cccc(F)c5)c(Cl)c4)c3c2)o1 [Lapatinib] (partner 2 µM)
How it was run: (§1)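 Lung cancer cell lines, seeded in 1536-well plates, were treated the following day by pin tool with a single drug or with five library-drug doses (not always all listed) in √10 steps on top of a fixed anchor-drug dose. Cells were fixed and nuclei stained in one step after 5 days, and nuclei were counted. Relative viability is the nuclei count for treated wells divided by that for vehicle wells, reported as medians of duplicate plates.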

[2] = compound: CN1CCN(c2ccc3nc(-c4c(N)c5c(F)cccc5[nH]c4=O)[nH]c3c2)CC1 [Dovitinib] + CC(C)C[C@H](NC(=O)[C@H](Cc1ccccc1)NC(=O)c1cnccn1)B(O)O [Bortezomib] (partner 0.002 µM)
How it was run: as §1

[3] = compound: CN1CCN(c2ccc3nc(-c4c(N)c5c(F)cccc5[nH]c4=O)[nH]c3c2)CC1 [Dovitinib] + NC(=O)Nc1cc(-c2cccc(F)c2)sc1C(=O)N[C@H]1CCCNC1 [AZD7762] (partner 0.2 µM)
How it was run: as §1

[4] = compound: CN1CCN(c2ccc3nc(-c4c(N)c5c(F)cccc5[nH]c4=O)[nH]c3c2)CC1 [Dovitinib] + Nc1ncn([C@H]2C[C@H](O)[C@@H](CO)O2)c(=O)n1 [Decitabine] (partner 2 µM)
How it was run: as §1

Cell Line | relative viability ([1]; first compound 0.02 µM) | relative viability ([1]; first compound 0.06325 µM) | relative viability ([1]; first compound 0.2 µM) | relative viability ([1]; first compound 0.6325 µM) | relative viability ([1]; first compound 2 µM) | relative viability ([2]; first compound 0.02 µM) | relative viability ([2]; first compound 0.06325 µM) | relative viability ([2]; first compound 0.2 µM) | relative viability ([2]; first compound 0.6325 µM) | relative viability ([2]; first compound 2 µM) | relative viability ([3]; first compound 0.02 µM) | relative viability ([3]; first compound 0.06325 µM) | relative viability ([3]; first compound 0.2 µM) | relative viability ([3]; first compound 0.6325 µM) | relative viability ([3]; first compound 2 µM) | relative viability ([4]; first compound 0.02 µM) | relative viability ([4]; first compound 0.06325 µM) | relative viability ([4]; first compound 0.2 µM) | relative viability ([4]; first compound 0.6325 µM) | relative viability ([4]; first compound 2 µM)
NCI-H1563 | 0.92 | 0.994 | 0.944 | 0.982 | 1.18 | 0.962 | 0.879 | 0.977 | 0.938 | 0.908 | – | – | – | – | – | – | – | – | – | –
NCI-H1648 | – | – | – | – | – | – | – | – | – | – | 0.497 | 0.717 | 0.661 | 0.701 | 0.634 | 0.502 | 0.445 | 0.444 | 0.455 | 0.458
NCI-H1650 | 0.656 | 0.698 | 0.792 | 0.743 | 0.875 | 0.209 | 0.206 | 0.201 | 0.189 | 0.203 | – | – | – | – | – | 0.448 | 0.362 | 0.489 | 0.44 | 0.442
NCI-H2009 | 0.768 | 0.954 | 0.912 | 0.928 | 1.13 | 0.816 | 0.926 | 0.991 | 0.974 | 1.08 | – | – | – | – | – | 0.428 | 0.431 | 0.403 | 0.344 | 0.4
NCI-H2023 | 0.778 | 0.739 | 1.13 | 0.918 | 0.808 | 0.994 | 0.963 | 1.24 | 0.995 | 0.886 | – | – | – | – | – | 0.223 | 0.234 | 0.217 | 0.237 | 0.215
NCI-H2228 | 1.18 | 0.942 | 0.991 | 1.08 | 0.831 | 0.845 | 0.952 | 0.827 | 0.897 | 0.875 | – | – | – | – | – | – | – | – | – | –
NCI-H2342 | – | – | – | – | – | – | – | – | – | – | 0.561 | 0.583 | 0.488 | 0.8 | 0.473 | 0.799 | 0.697 | 0.672 | 0.756 | 0.776
SK-LU-1 | 0.735 | 0.927 | 0.875 | 0.814 | 0.823 | 0.977 | 0.993 | 1.06 | 1.28 | 1.26 | – | – | – | – | – | 0.614 | 0.636 | 0.662 | 0.758 | 0.572
SK-MES-1 | 0.438 | 0.47 | 0.482 | 0.524 | 0.437 | – | – | – | – | – | – | – | – | – | – | 0.358 | 0.404 | 0.381 | 0.414 | 0.348
SW 1573 | 1.18 | 1.06 | 1.05 | 1.17 | 1.16 | 0.985 | 1.06 | 0.997 | 1.08 | 1.03 | – | – | – | – | – | 0.479 | 0.516 | 0.612 | 0.397 | 0.629
UMC-11 | 1.04 | 1.01 | 0.96 | 0.963 | 0.724 | 0.77 | 0.669 | 0.881 | 0.81 | 0.668 | – | – | – | – | – | 0.614 | 0.589 | 0.64 | 0.575 | 0.715
